Test results: patent publication US4565811A, “Sodium salt of ursodeoxycholic sulphate” (Istituto Biologico Chemioterapico "ABC" S.p.A., priority 1983, dated 1986)

Columns and labels:
[1] = known compounds; cited from earlier work
[2] = test system: hyperdislipidemia caused by Triton WR-1339 in the rat; experiment: Action on the hyperdislipidemia caused by Triton WR-1339 in the rat; type: in vivo, Albinus rats (Witar); settings: for Alfa-Lipoproteins: Increase towards Group 2 / Beta-Lipoproteins: Inhibition towards Group 2 / Beta/alfa ratio: Inhibition towards Group 2 / Total cholesterol: Inhibition in comparison with Group 2 / Total lipids: Inhibition in comparison with Group 2 / Triglycerids: Inhibition in comparison with Group 2: vs Group 2 (Triton control)
Method: Action on the hyperdislipidemia caused by Triton WR-1339 in the rat
Albinus rats (Witar) of 300-320 g each, having been fed only with water "ad libitum" for 12 hours, were treated with US and UA, by oral route, 4 hours before and 15 hours after the administration intraperitenously of Triton WR-1339 at the dosage of 300 mg/kg in 10 ml/kg of physiologic solution at 0.9%.
US and UA dosages were 25, 50 and 100 mg/kg respectively and the rats were divided in the following groups of 10 animals each.
Group 1: Controls treated with 10 ml/kg of physiological solution at 0.9% orally.
Group 2: Controls treated with 300 mg/kg of Triton WR-1339 i.p. and 10 ml/kg of carboxy methyl cellulose (CMC) at 0.5%.
Group 3, 4 and 5: UA at 25, 50 and 100 mg/kg respectively suspended in 10 ml/kg of CMC at 0.5%.
Groups 6, 7 and 8: US at 25, 50 and 100 mg/kg respectively dissolved in 10 ml/kg of physiologic solution.
The following Tables 1 and 2 list the results of blood-tests from addominal aorta of rats sacrificed 5 hours after the last treatment: […]

[3] = cited from earlier work
[4] = 25 mg/kg os, Triton WR-1339 rat
[5] = 50 mg/kg os, Triton WR-1339 rat
[6] = 100 mg/kg os, Triton WR-1339 rat

SMILES: C[C@H](CCC(=O)O)[C@H]1CC[C@H]2[C@@H]3[C@@H](O)C[C@@H]4C[C@H](O)CC[C@]4(C)[C@H]3CC[C@]12C [UA, ursodeoxycholic acid, reference compound]
- Solubility in water [1]: pratically insoluble in water
- Alfa-Lipoproteins Average ± SD [2, 4]: 27,6 ± 9,8 mg/100 ml serum
- Beta-Lipoproteins Average ± SD [2, 4]: 221,17 ± 38,4 mg/100 ml serum
- Beta/alfa ratio Average ± SD [2, 4]: 8,95 ± 3,5 mg/100 ml serum
- Total cholesterol Average ± SD [2, 4]: 244,8 ± 34,5 mg/100 ml serum
- Total lipids Average ± SD [2, 4]: 3011,4 ± 513,6 mg/100 ml serum
- Triglycerids Average ± SD [2, 4]: 1167,14 ± 180,5 mg/100 ml serum
- Alfa-Lipoproteins: Increase towards Group 2 ([2]; 25 mg/kg os): +23,2%
- Beta-Lipoproteins: Inhibition towards Group 2 ([2]; 25 mg/kg os): -19,1%
- Beta/alfa ratio: Inhibition towards Group 2 ([2]; 25 mg/kg os): -28,2%
- Total cholesterol: Inhibition in comparison with Group 2 ([2]; 25 mg/kg os): -15,9%
- Total lipids: Inhibition in comparison with Group 2 ([2]; 25 mg/kg os): -21,1%
- Triglycerids: Inhibition in comparison with Group 2 ([2]; 25 mg/kg os): -11,0%
- Alfa-Lipoproteins Average ± SD [2, 5]: 41,7 ± 11,3 mg/100 ml serum
- Beta-Lipoproteins Average ± SD [2, 5]: 133,7 ± 60,4 mg/100 ml serum
- Beta/alfa ratio Average ± SD [2, 5]: 3,88 ± 1,73 mg/100 ml serum
- Total cholesterol Average ± SD [2, 5]: 175,47 ± 54,26 mg/100 ml serum
- Total lipids Average ± SD [2, 5]: 2517,3 ± 557,6 mg/100 ml serum
- Triglycerids Average ± SD [2, 5]: 893,6 ± 298,1 mg/100 ml serum
- Alfa-Lipoproteins: Increase towards Group 2 ([2]; 50 mg/kg os): +86,1%
- Beta-Lipoproteins: Inhibition towards Group 2 ([2]; 50 mg/kg os): -51,2%
- Beta/alfa ratio: Inhibition towards Group 2 ([2]; 50 mg/kg os): -68,8%
- Total cholesterol: Inhibition in comparison with Group 2 ([2]; 50 mg/kg os): -40,7%
- Total lipids: Inhibition in comparison with Group 2 ([2]; 50 mg/kg os): -34,1%
- Triglycerids: Inhibition in comparison with Group 2 ([2]; 50 mg/kg os): -31,9%
- Alfa-Lipoproteins Average ± SD [2, 6]: 39,64 ± 11,4 mg/100 ml serum
- Beta-Lipoproteins Average ± SD [2, 6]: 115,5 ± 58,7 mg/100 ml serum
- Beta/alfa ratio Average ± SD [2, 6]: 3,41 ± 2,29 mg/100 ml serum
- Total cholesterol Average ± SD [2, 6]: 155,2 ± 50,3 mg/100 ml serum
- Total lipids Average ± SD [2, 6]: 2241,14 ± 517,4 mg/100 ml serum
- Triglycerids Average ± SD [2, 6]: 628,8 ± 223,0 mg/100 ml serum
- Alfa-Lipoproteins: Increase towards Group 2 ([2]; 100 mg/kg os): +76,8%
- Beta/alfa ratio: Inhibition towards Group 2 ([2]; 100 mg/kg os): -72,6%
- Total cholesterol: Inhibition in comparison with Group 2 ([2]; 100 mg/kg os): -47,6%
- Total lipids: Inhibition in comparison with Group 2 ([2]; 100 mg/kg os): -41,3%
- Triglycerids: Inhibition in comparison with Group 2 ([2]; 100 mg/kg os): -52,1%
- Dose dependence of activity inhibiting the hyperdislipidemia ([2]; 25, 50 and 100 mg/kg oral, Triton WR-1339 rat): depends on the dosage
- Effect on cholesterol stones ([3]; bile saturated with cholesterol): prevents the formation of cholesterol stones
- Dissolution of radiotransparent stones ([3]; under suitable conditions): able to dissolve under suitable conditions the radiotransparent stones
